Data taken from PubChem BioAssay (NCI).
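All cell lines were grown in 96-well plates and treated with compound for 48 hours. TGI: total growth inhibition.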

Experiments:
Assay in all cases: DTP human tumour cell line panel, 48 h
786-0 renal = test system: 786-0 renal
A498 renal = test system: A498 renal
ACHN renal = test system: ACHN renal
BT-549 breast = test system: BT-549 breast
CAKI-1 renal = test system: CAKI-1 renal
COLO 205 colon = test system: COLO 205 colon
DU-145 prostate = test system: DU-145 prostate
EKVX NSCLC = test system: EKVX NSCLC
HCC-2998 colon = test system: HCC-2998 colon
HCT-116 colon = test system: HCT-116 colon
HCT-15 colon = test system: HCT-15 colon
HL-60(TB) leukemia = test system: HL-60(TB) leukemia
HOP-62 NSCLC = test system: HOP-62 NSCLC
HOP-92 NSCLC = test system: HOP-92 NSCLC
HS 578T breast = test system: HS 578T breast
HT29 colon = test system: HT29 colon
IGROV1 ovarian = test system: IGROV1 ovarian
K-562 leukemia = test system: K-562 leukemia
KM12 colon = test system: KM12 colon
LOX IMVI melanoma = test system: LOX IMVI melanoma
M14 melanoma = test system: M14 melanoma
MCF7 breast = test system: MCF7 breast
MDA-MB-231 breast = test system: MDA-MB-231 breast
MDA-MB-435 = test system: MDA-MB-435
MDA-N = test system: MDA-N
MOLT-4 leukemia = test system: MOLT-4 leukemia
NCI-H226 lung = test system: NCI-H226 lung
NCI-H23 lung = test system: NCI-H23 lung
NCI-H460 lung = test system: NCI-H460 lung
NCI/ADR-RES ovarian = test system: NCI/ADR-RES ovarian
OVCAR-3 ovarian = test system: OVCAR-3 ovarian
OVCAR-4 ovarian = test system: OVCAR-4 ovarian
OVCAR-5 ovarian = test system: OVCAR-5 ovarian
OVCAR-8 ovarian = test system: OVCAR-8 ovarian
PC-3 prostate = test system: PC-3 prostate
RPMI-8226 leukemia = test system: RPMI-8226 leukemia
RXF 393 renal = test system: RXF 393 renal
SF-268 CNS = test system: SF-268 CNS
SF-295 CNS = test system: SF-295 CNS
SF-539 CNS = test system: SF-539 CNS
SK-MEL-2 melanoma = test system: SK-MEL-2 melanoma
SK-MEL-28 melanoma = test system: SK-MEL-28 melanoma
SK-MEL-5 melanoma = test system: SK-MEL-5 melanoma
SK-OV-3 ovarian = test system: SK-OV-3 ovarian
SN12C renal = test system: SN12C renal
SNB-19 CNS = test system: SNB-19 CNS
SNB-75 CNS = test system: SNB-75 CNS
SW-620 colon = test system: SW-620 colon
T-47D breast = test system: T-47D breast
TK-10 renal = test system: TK-10 renal
U251 CNS = test system: U251 CNS
UACC-257 melanoma = test system: UACC-257 melanoma
UACC-62 melanoma = test system: UACC-62 melanoma
UO-31 renal = test system: UO-31 renal
A549 NSCLC = test system: A549 NSCLC
CCRF-CEM leukemia = test system: CCRF-CEM leukemia
MALME-3M melanoma = test system: MALME-3M melanoma
NCI-H522 lung = test system: NCI-H522 lung

Cn1c(=O)c2c(nc3sc4ccccc4c(=O)n32)n(C)c1=O
TGI (786-0 renal): > 100 µM
TGI (A498 renal): > 100 µM
TGI (ACHN renal): > 100 µM
TGI (BT-549 breast): > 100 µM
TGI (CAKI-1 renal): > 100 µM
TGI (COLO 205 colon): > 100 µM
TGI (DU-145 prostate): > 100 µM
TGI (EKVX NSCLC): > 100 µM
TGI (HCC-2998 colon): > 100 µM
TGI (HCT-116 colon): > 100 µM
TGI (HCT-15 colon): > 100 µM
TGI (HL-60(TB) leukemia): > 100 µM
TGI (HOP-62 NSCLC): > 100 µM
TGI (HOP-92 NSCLC): > 100 µM
TGI (HS 578T breast): > 100 µM
TGI (HT29 colon): > 100 µM
TGI (IGROV1 ovarian): > 100 µM
TGI (K-562 leukemia): > 100 µM
TGI (KM12 colon): > 100 µM
TGI (LOX IMVI melanoma): > 100 µM
TGI (M14 melanoma): > 100 µM
TGI (MCF7 breast): > 100 µM
TGI (MDA-MB-231 breast): > 100 µM
TGI (MDA-MB-435): > 100 µM
TGI (MDA-N): > 100 µM
TGI (MOLT-4 leukemia): > 100 µM
TGI (NCI-H226 lung): > 100 µM
TGI (NCI-H23 lung): > 100 µM
TGI (NCI-H460 lung): > 100 µM
TGI (NCI/ADR-RES ovarian): > 100 µM
TGI (OVCAR-3 ovarian): > 100 µM
TGI (OVCAR-4 ovarian): > 100 µM
TGI (OVCAR-5 ovarian): > 100 µM
TGI (OVCAR-8 ovarian): > 100 µM
TGI (PC-3 prostate): > 100 µM
TGI (RPMI-8226 leukemia): > 100 µM
TGI (RXF 393 renal): > 100 µM
TGI (SF-268 CNS): > 100 µM
TGI (SF-295 CNS): > 100 µM
TGI (SF-539 CNS): > 100 µM
TGI (SK-MEL-2 melanoma): > 100 µM
TGI (SK-MEL-28 melanoma): > 100 µM
TGI (SK-MEL-5 melanoma): > 100 µM
TGI (SK-OV-3 ovarian): > 100 µM
TGI (SN12C renal): > 100 µM
TGI (SNB-19 CNS): > 100 µM
TGI (SNB-75 CNS): > 100 µM
TGI (SW-620 colon): > 100 µM
TGI (T-47D breast): > 100 µM
TGI (TK-10 renal): > 100 µM
TGI (U251 CNS): > 100 µM
TGI (UACC-257 melanoma): > 100 µM
TGI (UACC-62 melanoma): > 100 µM
TGI (UO-31 renal): > 100 µM

COc1cc2oc3c(c(=O)c2c(O)c1/C=C/C(C)C)C(C=C(C)C)Oc1cc(O)ccc1-3 (stereo not given)
TGI (786-0 renal): 30.6 µM
TGI (A498 renal): 40.3 µM
TGI (A549 NSCLC): 28.8 µM
TGI (ACHN renal): 29.4 µM
TGI (BT-549 breast): 23.4 µM
TGI (CAKI-1 renal): 32.2 µM
TGI (CCRF-CEM leukemia): 30.4 µM
TGI (COLO 205 colon): 29.4 µM
TGI (DU-145 prostate): 30.2 µM
TGI (EKVX NSCLC): 30.3 µM
TGI (HCC-2998 colon): 25.2 µM
TGI (HCT-116 colon): 28.1 µM
TGI (HCT-15 colon): 31.7 µM
TGI (HL-60(TB) leukemia): 56.1 µM
TGI (HOP-92 NSCLC): 29.3 µM
TGI (HS 578T breast): 38.2 µM
TGI (HT29 colon): 28.8 µM
TGI (IGROV1 ovarian): 27.7 µM
TGI (K-562 leukemia): 24.2 µM
TGI (KM12 colon): 34.5 µM
TGI (LOX IMVI melanoma): 27.7 µM
TGI (M14 melanoma): 27.3 µM
TGI (MALME-3M melanoma): 38.9 µM
TGI (MCF7 breast): 28.6 µM
TGI (MDA-MB-231 breast): 33.2 µM
TGI (MDA-MB-435): 30.8 µM
TGI (MDA-N): 31.9 µM
TGI (MOLT-4 leukemia): 25.8 µM
TGI (NCI-H226 lung): 32.7 µM
TGI (NCI-H23 lung): 30.5 µM
TGI (NCI-H460 lung): 30.9 µM
TGI (NCI-H522 lung): 32.3 µM
TGI (NCI/ADR-RES ovarian): 31.1 µM
TGI (OVCAR-3 ovarian): 28.4 µM
TGI (OVCAR-4 ovarian): 31.5 µM
TGI (OVCAR-5 ovarian): 31.1 µM
TGI (OVCAR-8 ovarian): 30.8 µM
TGI (PC-3 prostate): 29.4 µM
TGI (RPMI-8226 leukemia): 33.9 µM
TGI (SF-268 CNS): 36.8 µM
TGI (SF-295 CNS): 31.4 µM
TGI (SF-539 CNS): 31.8 µM
TGI (SK-MEL-2 melanoma): 29.9 µM
TGI (SK-MEL-28 melanoma): 31.2 µM
TGI (SK-MEL-5 melanoma): 39.9 µM
TGI (SK-OV-3 ovarian): 30.5 µM
TGI (SN12C renal): 30.4 µM
TGI (SNB-19 CNS): 30.6 µM
TGI (SNB-75 CNS): 29.4 µM
TGI (SW-620 colon): 32.3 µM
TGI (T-47D breast): 31 µM
TGI (TK-10 renal): 31.5 µM
TGI (U251 CNS): 31.1 µM
TGI (UACC-257 melanoma): 32.6 µM
TGI (UACC-62 melanoma): 32.3 µM
TGI (UO-31 renal): 25.2 µM
